US4156724A, “N-acylamino-alpha-arylacetamido cephalosporins and antibacterial compositions and methods containing them” (Sumitomo Chemical Company, Limited, priority 1974, dated 1979)
≈ marks a conversion by molar mass, not a printed value.

Columns and labels:
Assay type in all cases: cell-based
[1] = system: Staphylococcus aureus 209 P; assay: Minimum Inhibitory Concentration, Staphylococcus aureus 209 P; settings: Staphylococcus aureus 209 P; read-out: Minimum Inhibitory Concentration
Procedure: (§1) anti-microbial activity tests were carried out on the compounds obtained in the Examples.

[2] = system: Staphylococcus aureus FS 289; assay: Minimum Inhibitory Concentration, Staphylococcus aureus FS 289; settings: FS289; Staphylococcus aureus FS 289, strain resistant to penicillin; read-out: Minimum Inhibitory Concentration
Procedure: as §1
*Staphylococcus aureus FS 289: strain resistant to penicillin

Escherichia coli NIHJ = assay: Minimum Inhibitory Concentration, Escherichia coli NIHJ; settings: Escherichia coli NIHJ; read-out: Minimum Inhibitory Concentration
Procedure: as §1

[3] = system: Klebsiella pneumoniae 602; assay: Minimum Inhibitory Concentration, Klebsiella pneumoniae 602; settings: Klebsiella pneumoniae, 602, Klebsiella pneumoniae 602; read-out: Minimum Inhibitory Concentration
Procedure: as §1

Proteus vulgaris HX 19 = assay: Minimum Inhibitory Concentration, Proteus vulgaris HX 19; settings: HX19; Proteus vulgaris HX 19; read-out: Minimum Inhibitory Concentration
Procedure: as §1

[4] = system: Pseudomonas aeruginosa 104; assay: Minimum Inhibitory Concentration, Pseudomonas aeruginosa 104; settings: Pseudomonas aeruginosa 104; read-out: Minimum Inhibitory Concentration
Procedure: as §1

Serratia No. 72 = assay: Minimum Inhibitory Concentration, Serratia No. 72
Procedure: as §1

[5] = system: Enterobacter aerogeneus No. 75; assay: Minimum Inhibitory Concentration, Enterobacter aerogeneus No. 75; settings: Enterobacter aerogeneus No. 75; read-out: Minimum Inhibitory Concentration
Procedure: as §1

Row | SMILES | MIC [1] | MIC [2] | MIC (Escherichia coli NIHJ) | MIC [3] | MIC (Proteus vulgaris HX 19) | MIC [4] | MIC (Serratia No. 72) | MIC [5]
1 | Cc1ccc2c(O)c(C(=O)NC(C(=O)NC3C(=O)N4C(C(=O)O)=C(CSc5nnn(C)n5)CSC34)c3cccc(N)c3)cnc2n1 (centres unmarked) [Example 63] | 1.56 µg/mL (≈ 2.35 µM) | 6.25 µg/mL (≈ 9.43 µM) | 6.25 µg/mL (≈ 9.43 µM) | 1.56 µg/mL (≈ 2.35 µM) | 0.1 µg/mL (≈ 0.151 µM) | 6.25 µg/mL (≈ 9.43 µM) | 50 µg/mL (≈ 75.4 µM) | 12.5 µg/mL (≈ 18.9 µM)
2 | Cc1nnc(SCC2=C(C(=O)O)N3C(=O)C(NC(=O)C(NC(=O)c4cnc5nc(N(C)C)ncc5c4O)c4ccc(O)c(O)c4)C3SC2)s1 (centres unmarked) [Example 156] | 1.56 µg/mL (≈ 2.15 µM) | 12.5 µg/mL (≈ 17.2 µM) | 6.25 µg/mL (≈ 8.61 µM) | 6.25 µg/mL (≈ 8.61 µM) | 0.78 µg/mL (≈ 1.07 µM) | 6.25 µg/mL (≈ 8.61 µM) | 50 µg/mL (≈ 68.9 µM) | 12.5 µg/mL (≈ 17.2 µM)
3 | Cc1ccc2c(O)c(C(=O)NC(C(=O)NC3C(=O)N4C(C(=O)O)=C(CSc5nnc(C)s5)CSC34)c3ccc(CO)cc3)cnc2n1 (centres unmarked) [Example 100] | 1.56 µg/mL (≈ 2.25 µM) | 6.25 µg/mL (≈ 9.01 µM) | 3.13 µg/mL (≈ 4.51 µM) | 6.25 µg/mL (≈ 9.01 µM) | 0.39 µg/mL (≈ 0.562 µM) | 6.25 µg/mL (≈ 9.01 µM) | 50 µg/mL (≈ 72.1 µM) | 6.25 µg/mL (≈ 9.01 µM)
4 | Cc1cc(C(NC(=O)c2cnc3cccnc3c2O)C(=O)NC2C(=O)N3C(C(=O)O)=C(CSc4ccc(O)nn4)CSC23)ccc1O (centres unmarked) [Example 161] | 0.78 µg/mL (≈ 1.15 µM) | 12.5 µg/mL (≈ 18.5 µM) | 6.25 µg/mL (≈ 9.25 µM) | 3.13 µg/mL (≈ 4.63 µM) | 0.39 µg/mL (≈ 0.577 µM) | 6.25 µg/mL (≈ 9.25 µM) | 50 µg/mL (≈ 74 µM) | 12.5 µg/mL (≈ 18.5 µM)
5 | Cn1nnnc1SCC1=C(C(=O)O)N2C(=O)C(NC(=O)C(NC(=O)c3cnc4cccnc4c3O)c3cccc(N)c3)C2SC1 (centres unmarked) [Example 68] | 0.78 µg/mL (≈ 1.2 µM) | 3.13 µg/mL (≈ 4.83 µM) | 1.56 µg/mL (≈ 2.4 µM) | 3.13 µg/mL (≈ 4.83 µM) | 0.1 µg/mL (≈ 0.154 µM) | 3.13 µg/mL (≈ 4.83 µM) | 12.5 µg/mL (≈ 19.3 µM) | 3.13 µg/mL (≈ 4.83 µM)

Further compounds by falling MIC [1], results first:

Row | MIC [1] | MIC [2] | MIC (Escherichia coli NIHJ) | MIC [3] | MIC (Proteus vulgaris HX 19) | MIC [4] | MIC (Serratia No. 72) | MIC [5] | SMILES
6 | 1.56 µg/mL (≈ 2.33 µM) | 12.5 µg/mL (≈ 18.7 µM) | 6.25 µg/mL (≈ 9.33 µM) | 3.13 µg/mL (≈ 4.67 µM) | 0.39 µg/mL (≈ 0.582 µM) | 6.25 µg/mL (≈ 9.33 µM) | 25 µg/mL (≈ 37.3 µM) | 12.5 µg/mL (≈ 18.7 µM) | Cc1nnc(SCC2=C(C(=O)O)N3C(=O)C(NC(=O)C(NC(=O)c4cnc5sccc5c4O)c4cccc(N)c4)C3SC2)s1 (centres unmarked) [Example 75]
7 | 1.56 µg/mL (≈ 2.24 µM) | 6.25 µg/mL (≈ 8.98 µM) | 3.13 µg/mL (≈ 4.5 µM) | 3.13 µg/mL (≈ 4.5 µM) | 0.1 µg/mL (≈ 0.144 µM) | 6.25 µg/mL (≈ 8.98 µM) | 12.5 µg/mL (≈ 18 µM) | 6.25 µg/mL (≈ 8.98 µM) | CSc1cnc2c(O)c(C(=O)NC(C(=O)NC3C(=O)N4C(C(=O)O)=C(CSc5nnnn5C)CSC34)c3cccc(N)c3)cnc2n1 (centres unmarked) [Example 70]
8 | 0.78 µg/mL (≈ 1.4 µM) | 6.25 µg/mL (≈ 11.2 µM) | 25 µg/mL (≈ 44.8 µM) | 12.5 µg/mL (≈ 22.4 µM) | 0.39 µg/mL (≈ 0.7 µM) | 12.5 µg/mL (≈ 22.4 µM) | > 200 µg/mL | 25 µg/mL (≈ 44.8 µM) | CC(=O)OCC1=C(C(=O)O)N2C(=O)C(NC(=O)C(NC(=O)c3ccnnc3O)c3ccc(CO)cc3)C2SC1 (centres unmarked) [Example 92]
9 | 0.78 µg/mL (≈ 1.14 µM) | 6.25 µg/mL (≈ 9.17 µM) | 3.13 µg/mL (≈ 4.59 µM) | 3.13 µg/mL (≈ 4.59 µM) | 0.78 µg/mL (≈ 1.14 µM) | 6.25 µg/mL (≈ 9.17 µM) | 50 µg/mL (≈ 73.3 µM) | 12.5 µg/mL (≈ 18.3 µM) | CSc1ccc2ncc(C(=O)N[C@@H](C(=O)N[C@@H]3C(=O)N4C(C(=O)O)=C(COC(C)=O)CS[C@H]34)c3cccc(NC(N)=O)c3)c(O)c2n1 [Example 34]
10 | 0.39 µg/mL (≈ 0.633 µM) | 6.25 µg/mL (≈ 10.2 µM) | 6.25 µg/mL (≈ 10.2 µM) | 6.25 µg/mL (≈ 10.2 µM) | 0.2 µg/mL (≈ 0.325 µM) | 6.25 µg/mL (≈ 10.2 µM) | 50 µg/mL (≈ 81.2 µM) | 12.5 µg/mL (≈ 20.3 µM) | Cc1nnc(SCC2=C(C(=O)O)N3C(=O)C(NC(=O)[C@H](NC(=O)c4ccnnc4O)c4ccc(O)cc4)C3SC2)s1 (some centres unmarked) [Example 127]
